Test results: US9429566B2, “Assay for inhibitors of CIP/KIP protein degradation” (UNIVERSITE DE MONTREAL, priority 2011, dated 2016)
Peptide text beside a SMILES is read from it. * marks the point of attachment. Cbz = O=C(OCc1ccccc1)*

Experiments:
[1] = tested on: p21-Rluc fusion protein; assay: High throughput p21 degradation assay (p21-Rluc reporter, cycloheximide); assay type: cell-based, human; conditions: MG132 25 μM, set at 100% stabilization
[2] = tested on: endogenous p21 protein; assay: p21 ELISA of endogenous p21 protein; assay type: cell-based; conditions: dose-response, normalized to DMSO, FIG. 10B
From the text: Luciferase values are normalized to the control DMSO (set to 1). […] ELISA values are normalized to the control DMSO.
The p21-Rluc degradation assay was next transposed to a HTS-compatible format in 384-well plates and used to screen the Institut de Recherche en Immunologie et Cancerologie's (IRIC's) collection of 112,900 compounds (FIG. 6) derived from the Chembridge DIVERset™ screening library, the Maybridge Hitfinder™ screening library, the Specs screening library, the Microsource […]™ collection, the Biomol/Enzo Life Sciences Screen-Well™ library, the Prestwick Chemical Library™ library and the Sigma LOPAC^1280™. The potent proteasome inhibitor MG-132 was used as positive control. The mean increase of p21-Rluc signal by all positive controls across the screen was 3.062 (FIG. 6). This value was set at 100% stabilization and used as comparison reference for test compounds. From the primary screen, 686 compounds that increase the p21-Rluc luminescence signal by at least 1.7-fold and 4 SDs above baseline (DMSO control) were identified (FIG. 5). These compounds were re-tested in a reconfirmation experiment using the same assay conditions. […] Confirmed hits were then tested in a secondary assay using Rluc alone to eliminate compounds that increase luciferase enzymatic activity or boost the luminescence signal. […]

Q: With `CC(C)C[C@@H](C=O)NC(=O)[C@H](CC(C)C)NC(=O)[C@H](CC(C)C)NC(=O)OCc1ccccc1` [MG-132] (Cbz-Leu-Leu-Leu-aldehyde) as the compound, how does the “mean increase of p21-Rluc signal by all positive controls across the screen” value [1] read?
A: The value was 3.062.

Q: And the “intracellular expression of endogenous p21 protein (ELISA)” value [2]?
A: The value was “increase in the intracellular expression of the endogenous protein”.
